Article PMC8616928, “Versatile selective evolutionary pressure using synthetic defect in universal metabolism” (Nature Communications, 2021)

Assays:
MsIRED [1] = molecular target: T1, MsIRED (Myxococcus stipitatus, UniProt L7U9F5, N32D/R33V/T34R/K37R); assay: NADH absorbance, initial rates, Michaelis-Menten with substrate inhibition; assay type: biochemical; conditions: NADH saturating, pH 7.4, 37 °C; substrate inhibition constant
T1 construct: gene MYSTI_01767

MsIRED [2] = molecular target: T2, MsIRED (Myxococcus stipitatus, UniProt L7U9F5, N32E/R33Y/T34E/K37R/L67I/T71V); assay: as above; assay type: biochemical; conditions: NADH saturating, pH 7.4, 37 °C; substrate inhibition constant
T2 construct: gene MYSTI_01767

CBADH = molecular target: T3, CBADH (Clostridium beijerinckii, UniProt P25984); assay: NAD(P)H absorbance, initial rates; assay type: biochemical; conditions: NADP+, pH 8.8, 37 °C
T3 construct: gene adh
T3 sequence (P25984 1-351): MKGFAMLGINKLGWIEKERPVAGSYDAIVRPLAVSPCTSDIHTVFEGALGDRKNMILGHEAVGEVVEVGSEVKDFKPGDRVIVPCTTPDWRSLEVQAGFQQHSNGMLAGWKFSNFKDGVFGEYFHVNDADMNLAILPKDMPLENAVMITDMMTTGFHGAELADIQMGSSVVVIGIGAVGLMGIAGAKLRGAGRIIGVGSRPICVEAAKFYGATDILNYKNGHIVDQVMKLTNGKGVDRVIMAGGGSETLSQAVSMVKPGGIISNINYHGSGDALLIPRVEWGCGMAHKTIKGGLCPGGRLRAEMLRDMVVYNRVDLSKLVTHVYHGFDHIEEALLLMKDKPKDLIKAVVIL

TADH = molecular target: T4, TADH (Thermus sp. ATN1, UniProt B2ZRE3); assay: anaerobic growth rescue of E. coli AL and 1H-NMR of broth; assay type: cell-based; conditions: whole cells, NADH regenerated by glycolysis
T4 construct: full length, untagged, expressed from pUC19 in E. coli strain AL
T4 sequence (B2ZRE3 1-347): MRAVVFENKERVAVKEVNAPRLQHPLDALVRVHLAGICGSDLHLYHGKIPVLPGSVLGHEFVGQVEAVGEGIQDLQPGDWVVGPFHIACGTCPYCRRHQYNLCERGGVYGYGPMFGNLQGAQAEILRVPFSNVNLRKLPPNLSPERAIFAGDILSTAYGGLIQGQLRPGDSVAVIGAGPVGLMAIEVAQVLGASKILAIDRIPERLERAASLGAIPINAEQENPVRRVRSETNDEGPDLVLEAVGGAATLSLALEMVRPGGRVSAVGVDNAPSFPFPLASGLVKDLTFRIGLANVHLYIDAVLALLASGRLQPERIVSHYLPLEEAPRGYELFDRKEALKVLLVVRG

BDHA = molecular target: T5, BDHA (Bacillus subtilis, UniProt O34788); assay: as above; assay type: cell-based; conditions: whole cells; endogenous acetoin reductase background
T5 construct: full length, untagged, expressed from pUC19 in E. coli strain AL
T5 sequence (O34788 1-346): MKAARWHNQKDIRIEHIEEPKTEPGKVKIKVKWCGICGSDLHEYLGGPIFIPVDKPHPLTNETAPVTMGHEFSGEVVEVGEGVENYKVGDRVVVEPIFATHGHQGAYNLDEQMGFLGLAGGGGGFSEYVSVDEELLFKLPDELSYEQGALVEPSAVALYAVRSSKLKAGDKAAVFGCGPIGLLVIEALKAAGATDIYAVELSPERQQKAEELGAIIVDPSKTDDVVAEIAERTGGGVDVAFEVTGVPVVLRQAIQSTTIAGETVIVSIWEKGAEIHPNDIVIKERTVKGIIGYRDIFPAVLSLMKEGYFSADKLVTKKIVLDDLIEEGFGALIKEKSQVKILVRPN

BUDC = molecular target: T6, BUDC (Klebsiella pneumoniae, UniProt Q48436); assay: as above; assay type: cell-based; conditions: whole cells; endogenous acetoin reductase background
T6 construct: full length, untagged, expressed from pUC19 in E. coli strain AL
T6 sequence (Q48436 whole entry): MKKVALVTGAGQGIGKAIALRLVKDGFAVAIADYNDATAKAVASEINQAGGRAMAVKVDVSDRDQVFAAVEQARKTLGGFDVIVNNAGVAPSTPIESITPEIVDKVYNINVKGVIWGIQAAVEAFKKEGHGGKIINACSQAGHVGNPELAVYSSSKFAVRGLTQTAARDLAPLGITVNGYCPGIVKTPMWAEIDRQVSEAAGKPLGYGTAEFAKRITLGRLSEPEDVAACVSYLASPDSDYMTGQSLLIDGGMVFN

EntNfsB [3] = molecular target: T7, EntNfsB (Enterobacter cloacae, UniProt Q01234); assay: NADH absorbance, initial rates, anaerobic; assay type: biochemical; conditions: pH 7.4, 37 °C, activity too low for kinetic parameters
T7 construct: gene nfsB; full length, C-terminal His6 (pUC19), E. coli BL21(DE3), FMN holoprotein
T7 sequence (Q01234 1-217): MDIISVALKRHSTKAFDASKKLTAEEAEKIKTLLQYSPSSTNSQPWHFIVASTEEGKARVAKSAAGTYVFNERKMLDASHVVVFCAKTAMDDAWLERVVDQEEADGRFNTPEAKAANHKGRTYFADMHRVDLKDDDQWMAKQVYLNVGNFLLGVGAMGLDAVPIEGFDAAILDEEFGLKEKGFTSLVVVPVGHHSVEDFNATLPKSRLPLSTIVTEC

EntNfsB [4] = molecular target: T8, EntNfsB (Enterobacter cloacae, UniProt Q01234, T41L/Y68L/F124L); conditions: pH 7.4, 37 °C, saturating cofactor, anaerobic
T8 construct: gene nfsB

[5] = substrate: CC1=NCCC1; assay: NADH absorbance, initial rates, Michaelis-Menten with substrate inhibition; assay type: biochemical, Myxococcus stipitatus; conditions: NADH saturating, pH 7.4, 37 °C
[6] = substrate: O=C(O)c1ccc([N+](=O)[O-])cc1; assay: NADH absorbance, initial rates, anaerobic, Michaelis-Menten fit; assay type: biochemical, Enterobacter cloacae; conditions: pH 7.4, 37 °C, saturating cofactor

Q: How did the Ki (MsIRED [1]) turn out when CC1=NCCC1 [2-methyl-1-pyrroline] was run?
A: 11.42 mM

Q: And the Ki (MsIRED [2])?
A: 4.94 mM

Q: For CC(C)O [isopropanol], which “NAD(P)H absorbance, initial rates” value (CBADH) is on record?
A: Unlike the parent enzyme CBADHWT, purified CBADHS was unable to oxidize isopropanol using oxidized NADP

Q: For O=C1CCCCC1 [cyclohexanone], which “anaerobic growth rescue of E. coli AL and 1H-NMR of broth” value (“anaerobic growth rescue” for short) (TADH) is on record?
A: acetoin for BDHA and BUDC, and cyclohexanone or 3-methylcyclohexanone for TADH

Q: For CC1CCCC(=O)C1 (stereo not drawn) [3-methylcyclohexanone], which “anaerobic growth rescue” value (TADH) is on record?
A: acetoin for BDHA and BUDC, and cyclohexanone or 3-methylcyclohexanone for TADH

Q: For CC(=O)C(C)O (stereo not drawn) [acetoin], which “anaerobic growth rescue” value (BDHA) is on record?
A: acetoin for BDHA and BUDC, and cyclohexanone or 3-methylcyclohexanone for TADH

Q: What about the “anaerobic growth rescue” value (BUDC) of the same molecule?
A: acetoin for BDHA and BUDC, and cyclohexanone or 3-methylcyclohexanone for TADH

Q: Which results are given for O=[N+]([O-])c1ccc(CO)cc1 [4-nitrobenzyl alcohol]?
A: NADH absorbance, initial rates, anaerobic (EntNfsB [3]): it was able to reduce 4-NBA and 4-NBALC but not 2-NBA; Km (EntNfsB [4]): 1110 µM

B1: MsIRED (Myxococcus stipitatus DSM 14675; K37R/N32D/R33V/T34R) (protein)
chain: MKPTLTVIGAGRMGSALIKAFLQSGYTTTVWDVRKARSEPLAKLGAHLADTVRDAVKRSDIIVVNVLDYDTSDQLLRQDEVTRELRGKLLVQLTSGSPALAREQETWARQHGIDYLDGAIMATPDFIGQAECALLYSGSAALFEKHRAVLNVLGGATSHVGEDVGHASALDSALLFQMWGTLFGTLQALAISRAEGIPLEKTTAFIKLTEPVTQGAVADVLTRVQQNRLTADAQTLASLEAHNVAFQHLLALCEERNIHRGVADAMYSVIREAVKAGHGKDDFAILTRFLK
Q: Which Km [5] does the source give for B1 here?
A: 19570 µM

Q: What about the kcat [5] of the same molecule?
A: 1.3 s⁻¹

B2: MsIRED (Myxococcus stipitatus DSM 14675; K37R/L67I/N32E/R33Y/T34E/T71V) (protein)
chain: MKPTLTVIGAGRMGSALIKAFLQSGYTTTVWEYEKARSEPLAKLGAHLADTVRDAVKRSDIIVVNVIDYDVSDQLLRQDEVTRELRGKLLVQLTSGSPALAREQETWARQHGIDYLDGAIMATPDFIGQAECALLYSGSAALFEKHRAVLNVLGGATSHVGEDVGHASALDSALLFQMWGTLFGTLQALAISRAEGIPLEKTTAFIKLTEPVTQGAVADVLTRVQQNRLTADAQTLASLEAHNVAFQHLLALCEERNIHRGVADAMYSVIREAVKAGHGKDDFAILTRFLK
Q: For B2, which Km [5] is on record?
A: 34060 µM

Q: What about the kcat [5] of the same molecule?
A: 2.6862 s⁻¹

B3: EntNfsB (Enterobacter cloacae) (protein)
chain: MDIISVALKRHSTKAFDASKKLTAEEAEKIKTLLQYSPSSTNSQPWHFIVASTEEGKARVAKSAAGTYVFNERKMLDASHVVVFCAKTAMDDAWLERVVDQEEADGRFNTPEAKAANHKGRTYFADMHRVDLKDDDQWMAKQVYLNVGNFLLGVGAMGLDAVPIEGFDAAILDEEFGLKEKGFTSLVVVPVGHHSVEDFNATLPKSRLPLSTIVTEC
notes: full length, C-terminal His6 (pUC19), E. coli BL21(DE3), FMN holoprotein
Q: For B3, which Km [6] is on record?
A: 141 ± 22 µM

Q: And the kcat [6]?
A: 0.762 ± 0.0383 s⁻¹
